# In patent publication US20060035927A1, “Calcilytic compounds” (SmithKline Beecham Corporation, priority 1999, published 2006):
# What was measured:
# [1] = system: human osteoclasts; assay: Human osteoclast-mediated bone resorption assay; type: cell-based; details: 24 hours, bovine cortical bone particles
# Procedure: The isolation of disaggregated human osteoclasts from fresh osteoclastoma tissue and the in vitro human osteoclast resorption assay were performed according to James, J. Bone Min. Res., Vol. 11, pp. 1453-1460. Briefly, human osteoclasts were seeded onto bovine cortical bone particles with compound or vehicle for 24 hours at 37° C. The culture media were then removed and the levels of the carboxy-terminal peptide of the α1 chain of human type I collagen were quantified as a biochemical readout of resorption, using a competitive binding enzyme linked immunosorbant assay (ELISA) (19) (Osteometer A/S, Rodovre, Denmark). The results are expressed as percent inhibition of resorption compared to supernatants derived from osteoclasts cultured in vehicle without inhibitor. IC50 values are determined from the resultant dose response curves.
# [2] = system: osteopenic ovx rats; assay: Ovariectomized rat Study 2: calcilytic plus/minus 17β estradiol, histology and histomorphometry of proximal tibia; type: in vivo; details: Study 2, proximal tibia, static histomorphometry, vs ovx group
# Procedure: Animals were prepared and monitored as described above. […] Dosing continued for 5 weeks at which point the animals were sacrificed and the tibiae were collected for histological analysis. Bone samples were dehydrated through increasing concentrations of ethanol, defatted in acetone and embedded in methyl methacrylate (Polysciences, Inc., Warrington, Pa.). Longitudinal undecalcified sections (5 μm) sections of the proximal tibial were cut on a Leica microtome (S[…]); the tissue blocks had been prestained with Villanueva stain. Histomorphometric analysis was carried out using an Osteomeasure system (OsteoMetrics Incorpotated), without knowledge of group allocation. Measurements within the tibial metaphysis were restricted to a mean tissue area of approximately 8 mm^2 beginning 1 mm below the growth plate. Primary measurements included area of bone and marrow (mm^2), bone area (mm^2), perimeter of bone (mm), single and double-labelled perimeter (sL.Pm, dL.Pm, m), osteoid perimeter (O.Pm, m) and eroded perimeter (Er.P, m). […] Statistical analysis was assessed by a two sided t-test.
# [3] = cited from earlier work
# [4] = system: human TF274 osteoblastic cells; assay: Osteoblast cAMP production, TF274 cells; type: cell-based; details: compound 0.1, 1 and 10 uM, PTH 40 ng/ml positive control
# Procedure: (§1) cAMP accumulation was measured in both human TF274 osteoblastic cells (derived by immortalization of human bone marrow stromal cells) see James, supra, and primary human osteoblasts derived from explants of trabecular bone as described in Beresford, Biochim. Biophys. Acta, Vol. 801, pp. 58-65 ([…]). cAMP levels in cell samples were measured using a non-radioactive protocol (Amersham kit). Alkaline phosphatase activity was determined using the standard colorimetric method as described previously in Gowen, Arth. Rheum., Vol. 31, pp. 1500-1507 (1988). N-[(2R-Hydroxy-3-[(3-chloro-2-cyano)phenoxy-propyl]-1,1-dimethyl-2-(2-naphthyl)ethyl amine hydrochloride was tested at 0.1, 1 and 10 uM. PTH 40 ng/ml was used as a positive control.
# [5] = system: osteopenic ovx rats; assay: Ovariectomized rat Study 1: dynamic histomorphometry of proximal tibia; type: in vivo
# From the text: (§2) Seven month old virgin Sprague Dawley female rats were subjected to bilateral ovariectomy or sham surgery and the animals then held for a period of three months to allow the development of osteopenia. At that time a single sham group (n=10) and three groups of ovariectomized (ovx) animals (n=10-14) were assigned. The ovx groups were selected such that there was no significant difference in bone mineral density (“BMD”) of the lumbar spine, proximal tibia or distal femur between groups. Groups consisted of sham and ovx controls treated with dose vehicle (20% aqueous encapsin) and ovx groups treated with either N-[(2R-Hydroxy-3-[(3-chloro-2-cyano)phenoxy-propyl]-1,1-dimethyl-2-(2-naphthyl)ethyl amine hydrochloride (“calcilytic administered”) ([…] body weight daily p.o.) or rat PTH 1-34 (5 ug/kg body weight daily s.c.).
# (§3) During the study blood samples were drawn for determination of circulating PTH and osteocalcin. BMD was determined by DXA (QDR4500 Hologic, Waltham, Mass.) prior to treatment and at weeks 4 and 8. At term tibiae were removed for histological analysis. All animals received tetracycline 10 and 3 days prior to the start of dosing and calcein (10 mg/kg) 10 and 3 days prior to sacrifice.
# Bone samples were dehydrated through increasing concentrations of ethanol, defatted in acetone and embedded in methyl methacrylate (Polysciences, Inc., Warrington, Pa.). Longitudinal undecalcified sections (5 μm) sections of the proximal tibial were cut on a Leica microtome (SM2500S); the tissue blocks had been prestained with Villanueva stain. Histomorphometric analysis was carried out using an Osteomeasure system (OsteoMetrics Incorpotated), without knowledge of group allocation. Measurements within the tibial metaphysis were restricted to a mean tissue area of approximately 8 mm^2 beginning 1 mm below the growth plate. Primary measurements included area of bone and marrow (mm^2), bone area (mm^2), perimeter of bone (mm), single and double-labelled perimeter (sL.Pm, dL.Pm, m), osteoid perimeter (O.Pm, m) and eroded perimeter (Er.P, m). Derived indices included trabecular bone volume (% Tb.Ar), trabecular number (Th.N, mm^−1), trabecular thickness (Th.Th, μm), trabecular separation (Th.Sp, μm), bone formation rate, surface referent (BFR/Tb.Pm, μm^3/μm^2/year), BFR/Tb.Ar (bone area referent, %/year), BFR/B.Ar (tissue referent, %/year) and mineral apposition rate (MAR, μm/day), and percent labelled perimeter (% Lp). Statistical analysis was assessed by a two sided t-test.
# [6] = s.c. infusion 40 and 80 ug/kg/day over periods of 2 hours or more; cited from earlier work
# [7] = system: primary human osteoblasts; assay: Osteoblast cAMP production, primary human osteoblasts; type: cell-based; details: compound 0.1, 1 and 10 uM, PTH 40 ng/ml positive control
# Procedure: as §1
# [8] = system: plasma PTH; assay: Ovariectomized rat Study 1: circulating PTH levels (RIA); type: in vivo; details: Study 1, 5 ug/kg PTH s.c.
# From the text: as §2, §3
# Timed plasma samples were collected relative to administration of compound or PTH. PTH 1-34 was measured by RIA (Nichols Institute Diagnostics, San Juan Capistrano, Calif.). The concentrations of compound in the plasma were quantified by LC/MS/MS (limit of detection 10 ng/ml).
# [9] = system: osteopenic ovx rats; assay: Ovariectomized rat Study 1: bone mineral density by DXA; type: in vivo; details: Study 1, ovx rats, 5 ug/kg daily PTH s.c., eight weeks
# From the text: as §2, §3
# [10] = rats, PTH dose of 80 ug/kg, published studies; cited from earlier work
# [11] = clinical, 0.4 ug/kg, 30 minutes after dosing
# [12] = Study 1, proximal tibia, vs ovx control, calcilytic 100 mmol/kg p.o. or PTH 5 ug/kg s.c. daily
compound,measurement,setting,value
"3,1,1-bis (2-methylpropyl)-4,7,10-trioxo-2,5,6,8,9,12-hexaazatridecanedioate [reference compound]",IC50,[1],900 nM
"C[C@]12CC[C@@H]3c4ccc(O)cc4CC[C@H]3[C@@H]1CC[C@@H]2O [estradiol, 17β estradiol, reference compound]",% trabecular area (% Tb.Ar.) / ovx-induced bone loss,[2],not significantly restored
"PTH: parathyroid hormone; rat PTH 1-34 s.c. in the rat studies, PTH 40 ng/ml as positive control in osteoblast assays [reference compound]",bone mass,"[3]; clinical studies, approximate doses of 0.4-0.8 ug/kg body weight",increased bone mass
same,circulating levels of PTH 1-34,[3]; [11],approximately 90 pmol/l
same,increase in circulating PTH levels,[3]; [11],three-fold increase
same,cAMP levels (basal),[4],two-fold increase
same,"bone formation and resorption, net bone gain or loss","[5]; Study 1, overall outcome","increased both resorption and formation, but formation exceeded resorption, resulting in increased bone mass"
same,bone formation: % labeled perimeter (% L.Pm.),[5]; [12],elevated above the ovx control level
same,bone formation: % osteoid perimeter (% Os.Pm),[5]; [12],elevated above the ovx control level
same,adverse effects of prolonged PTH infusion,[6],"rapid loss in body weight, hypercalcemia and histological abnormalities in the skeleton"
same,cAMP levels (basal),[7],two-fold increase
same,time of return of PTH levels to baseline after dosing,[8],2 to 4 h
same,PTH levels in animals given PTH,[8]; compared with calcilytic-dosed animals,in the same range
same,bone mass (BMD) in the proximal tibia,[9],returned to pre-ovx levels
same,circulating level of PTH,[10],"5,000-14,000 pg/ml"
